Data reported in patent publication US20240342068A1, “CYCLODEXTRIN-BASED ETHYL LAUROYL ARGINATE (LAE) CLATHRATE, AND PREPARATION METHOD AND USE THEREOF” (NANJING UNIVERSITY OF FINANCE & ECONOMICS, priority 2022, published 2024).

Experiments:
[1] = pH range; cited from earlier work
[2] = Low-temperature storage stability at 4° C. (appearance); assay type: physicochemical
Method: (§1) The pH stability of a system was characterized by measuring turbidity and particle size. A 1% w/v LAE aqueous solution and an HPβCD/LAE clathrate aqueous solution (4% w/v) containing a same amount of 1% w/v LAE were prepared, respectively. The pH values of the LAE aqueous solution and the HPβCD/LAE clathrate aqueous solution were adjusted to 1, 3, 5, 7, 9, and 11 with 0.01 mol/L to 0.5 mol/L of sodium hydroxide and hydrochloric acid solutions, respectively. After allowing to stand at room temperature for 24 h, the absorbance at 600 nm of the LAE aqueous solutions and the HPβCD/LAE clathrate aqueous solutions with different pH values were measured with a UV spectrophotometer. The absorbance was used to represent a turbidity of the solution, while pure water was used as a reference. The particle size of the solution was measured with a ZS90 nanometer particle size analyzer. Photographs were taken to record the changes of the above solutions stored at 4° C. for 0 h, 24 h, 7 d, and 35 d to characterize the low-temperature storage stability of the samples.

[3] = in water at room temperature; cited from earlier work
[4] = pH stability by turbidity and particle size; assay type: physicochemical; settings: aqueous solution containing 1% w/v LAE, pH 1 to 11, room temperature 24 h
Method: as §1

Staphylococcus aureus = assay: Antibacterial activity by Oxford cup method with xanthan gum as interfering substance; assay type: cell-based; settings: 0.20% LAE, xanthan gum present, compared with no xanthan gum
Method: In order to test the performance of the HPβCD LAE clathrate prepared in Example 1, the antibacterial activity of the HPβCD/LAE clathrate in the presence of an anionic polysaccharide (xanthan gum) as an interfering substance was measured by an Oxford cup method. Groups A to G were set up, and each group had 3 parallel experiments. 15 mL of nutrient agar was added to each petri dish, cooled and solidified, and 100 μL of a Staphylococcus aureus solution (10^5 CFU/mL) was spread on each petri dish. […] Each group was placed with an Oxford cup, and 130 μL of an antibacterial solution was added to each Oxford cup; each of the Oxford cups was diffused in a 4° C. refrigerator for 24 h, cultured at 37° C. for 24 h, and an inhibition zone diameter (IZD) was measured with a micrometer. The mass percentages of the antibacterial solution added in Groups A to G were as follows: A: 0.20% LAE-no xanthan gum; B: 0.20% LAE; C: 0.08% HPβCD/LAE clathrate-0.02% LAE; D: 0.16% HPβCD/LAE clathrate-0.04% LAE; E: 0.40% HPβCD/LAE clathrate-0.10% LAE; F: 0.60% HPβCD/LAE clathrate-0.15% LAE; and G: 0.80% HPβCD/LAE clathrate-0.20% LAE. The […] was the raw material in Example 1.

Q: With `CCCCCCCCCCCC(=O)N[C@@H](CCCN=C(N)N)C(=O)OCC.Cl` [LAE, ethyl lauroyl arginate hydrochloride] as the molecule, how does the chemical stability [1] read?
A: desirable chemical stability at a pH value of 3 to 7

Q: And the low-temperature storage appearance ([2]; prolonged storage at low temperature (4° C., up to 35 d))?
A: eventually fully precipitated

Q: What about the low-temperature storage appearance ([2]; storage at low temperature (4° C.) for 24 h, pH 1 to 11) of the same molecule?
A: except for the solution of pH=7, all other LAE solutions had obvious crystallization

Q: What about the solubility [3] of the same molecule?
A: less than 2%

Q: And the “pH stability (turbidity, particle size)” value [4]?
A: obviously aggregated outside the pH value of 3 to 7

Q: What about the inhibition zone (Staphylococcus aureus) of the same molecule?
A: significantly reduced the inhibition zone of LAE
